From patent US5258406A, “Sulfonimidamides” (priority 1992, dated 1993)
Read-outs that look alike come from different tables or passages of the source.

Columns and labels:
Format in all cases: in vivo
B16 = details: IP, DX 10
Experimental: (§1) The compounds were tested in C3H mice bearing a 6C3HED lymphosarcoma, also known as the Gardner lymphosarcoma (GLS), and in a variety of human tumor xenografts in CD1 nu/nu mice, including CX-1, LX-1, HXGC3, and VRC5. The 6C3HED lymphosarcoma was obtained from the Division of Cancer Treatment, National […] Institute, Tumor Bank, maintained at E. G. and G. Mason Research (Worcester, Mass.). The CX-1 human colon carcinoma and the LX-1 human lung carcinoma xenografts were obtained from the National Cancer Institute. The HXGC3 and VRC5 human colon xenografts were obtained from Dr. P. J. Houghton, St. Jude Children's Hospital in Memphis (see Br. J. Cancer, 37, 213 (1978)). First passage tumor was stored in liquid nitrogen using standard techniques. The transplanted tumor was reestablished from the Tumor Bank every six months or as needed. The tumor was maintained by serial passage twice weekly in C3H mice.
(§2) In the procedure the tumor was removed from passage animals and minced into 1- to 3-mm square fragments using sterile techniques. Tumor pieces were checked for sterility using both Antibiotic Medium 1 and Brain Heart Infusion (Difco, Detroit, Mich.). Recipient mice were shaved and tumor pieces were implanted subcutaneously in the auxiliary region by trocar. Drug therapy on the appropriate schedule was initiated on the day after tumor implant for 6C3HED and after a seven (7) day delay for xenografts (or other delay as noted in Table 2). The compound being tested was mixed with 2.5% Emulphor EL620 from GAF Corporation (1:40 dilution in saline). Food and water were provided ad libitium. The drug was administered orally in 0.5 ml of 2.5% Emulphor (unless otherwise indicated). The tumor was measured the day after treatment ended with two dimensional measurements (width and length) of the tumor taken using automated digital calipers interfaced to a microcomputer. Approximate weight for the tumor was calculated using the following formula [Worzalla, J. F., et al., Invest. New Drugs, 8, 241 (1990], (tumor weight in mg)=(width in mm)^2 ×(length in mm)/2.
(§3) At least one control group of an equal number of mice was treated with the same volume of 2.5% Emulphor only. The percent inhibition was determined by subtracting the ratio of the mean tumor size of the test group relative to the control group from one and multiplying the result times 100.
(§4) The results of several experiments in mice bearing a 6C3HED lymphosarcoma (or other tumor where indicated) when the indicated compounds were administered are provided in Table 2. In Table 2, column 1 gives the Example number of the compound used, column 2 lists the dose level in mg/kg, column 3 provides the percent inhibition of tumor growth, column 4 gives the number of mice which died relative to the total number of animals in the group, column 5 gives the method of administration of the compound, and column 6 gives the dosage schedule. The protocol used with other tumors was the same as with the 6C3HED lymphosarcoma.

CX1 = details: IP, DX 10, from day 7 after implant
Experimental: as §1, §2, §3, §4

GC3 = details: IP, DX 10
Experimental: as §1, §2, §3, §4

HC1 = details: IP, DX 10
Experimental: as §1, §2, §3, §4

LX1 = details: IP
Experimental: as §1, §2, §3, §4

MX1 = details: IP, DX 10
Experimental: as §1, §2, §3, §4

VRC5 = tested on: VRC5
Experimental: as §1, §2, §3, §4

[1] = 3.75 mg/kg, DX 10 (line among ELC2 lines)
[2] = 3.75 mg/kg, DX 10, from day 7 after implant
[3] = 7.5 mg/kg, DX 10, from day 7 after implant
[4] = 15 mg/kg, DX 10, from day 7 after implant
[5] = 30 mg/kg, DX 10, from day 7 after implant
[6] = IP, 7.5 mg/kg, DX 10, from day 7 after implant
[7] = IP, 15 mg/kg, DX 10, from day 7 after implant
[8] = IP, 30 mg/kg, DX 10, from day 7 after implant
[9] = IP, 60 mg/kg, DX 10, from day 7 after implant

SMILES: Cc1ccc(S(=N)(=O)NC(=O)Nc2ccc(Cl)cc2)cc1C (stereo not shown) [Example 36, N-[[(4-chlorophenyl)amino]carbonyl]-3,4-dimethylbenzenesulfonimidamide]
- % inhibition of tumor growth (B16; 3.75 mg/kg): 0%
- Tox/Tot (mice which died / total) (B16; 3.75 mg/kg): 0/10
- % inhibition of tumor growth (B16; 7.5 mg/kg): 0%
- Tox/Tot (mice which died / total) (B16; 7.5 mg/kg): 0/10
- % inhibition of tumor growth (B16; 15 mg/kg): 0%
- Tox/Tot (mice which died / total) (B16; 15 mg/kg): 0/10
- % inhibition of tumor growth (B16; 30 mg/kg): 9%
- Tox/Tot (mice which died / total) (B16; 30 mg/kg): 0/10
- % inhibition of tumor growth (CX1; 3.75 mg/kg): 4%
- Tox/Tot (mice which died / total) (CX1; 3.75 mg/kg): 0/10
- % inhibition of tumor growth (CX1; 7.5 mg/kg): 10%
- Tox/Tot (mice which died / total) (CX1; 7.5 mg/kg): 0/10
- % inhibition of tumor growth (CX1; 15 mg/kg): 32%
- Tox/Tot (mice which died / total) (CX1; 15 mg/kg): 1/10
- % inhibition of tumor growth (CX1; 30 mg/kg): 23%
- Tox/Tot (mice which died / total) (CX1; 30 mg/kg): 4/10
- % inhibition of tumor growth (GC3; 3.75 mg/kg): 6%
- Tox/Tot (mice which died / total) (GC3; 3.75 mg/kg): 0/10
- % inhibition of tumor growth (GC3; 7.5 mg/kg): 17%
- Tox/Tot (mice which died / total) (GC3; 7.5 mg/kg): 0/10
- % inhibition of tumor growth (GC3; 15 mg/kg): 13%
- Tox/Tot (mice which died / total) (GC3; 15 mg/kg): 1/10
- % inhibition of tumor growth (GC3; 30 mg/kg): 12%
- Tox/Tot (mice which died / total) (GC3; 30 mg/kg): 9/10
- % inhibition of tumor growth (HC1; 7.5 mg/kg): 1%
- Tox/Tot (mice which died / total) (HC1; 7.5 mg/kg): 0/10
- % inhibition of tumor growth (HC1; 15 mg/kg): 24%
- Tox/Tot (mice which died / total) (HC1; 15 mg/kg): 0/10
- % inhibition of tumor growth (HC1; 30 mg/kg): 46%
- Tox/Tot (mice which died / total) (HC1; 30 mg/kg): 6/10
- % inhibition of tumor growth (HC1; 60 mg/kg): TOX
- Tox/Tot (mice which died / total) (HC1; 60 mg/kg): 10/10
- % inhibition of tumor growth (LX1; [1]): 0%
- Tox/Tot (mice which died / total) (LX1; [1]): 0/10
- % inhibition of tumor growth (LX1; [2]): 16%
- Tox/Tot (mice which died / total) (LX1; [2]): 0/10
- % inhibition of tumor growth (LX1; [3]): 1%
- Tox/Tot (mice which died / total) (LX1; [3]): 0/10
- % inhibition of tumor growth (LX1; [4]): 18%
- Tox/Tot (mice which died / total) (LX1; [4]): 1/10
- % inhibition of tumor growth (LX1; [5]): TOX
- Tox/Tot (mice which died / total) (LX1; [5]): 10/10
- % inhibition of tumor growth (MX1; 3.75 mg/kg): 5%
- Tox/Tot (mice which died / total) (MX1; 3.75 mg/kg): 0/10
- % inhibition of tumor growth (MX1; 7.5 mg/kg): 0%
- Tox/Tot (mice which died / total) (MX1; 7.5 mg/kg): 0/10
- % inhibition of tumor growth (MX1; 15 mg/kg): 0%
- Tox/Tot (mice which died / total) (MX1; 15 mg/kg): 0/10
- % inhibition of tumor growth (MX1; 30 mg/kg): 12%
- Tox/Tot (mice which died / total) (MX1; 30 mg/kg): 4/10
- % inhibition of tumor growth (VRC5; [6]): 0%
- Tox/Tot (mice which died / total) (VRC5; [6]): 1/10
- % inhibition of tumor growth (VRC5; [7]): 0%
- Tox/Tot (mice which died / total) (VRC5; [7]): 0/10
- % inhibition of tumor growth (VRC5; [8]): 44%
- Tox/Tot (mice which died / total) (VRC5; [8]): 4/10
- % inhibition of tumor growth (VRC5; [9]): TOX
- Tox/Tot (mice which died / total) (VRC5; [9]): 10/10
- % inhibition of tumor growth (VRC5; oral, 5 mg/kg, DX 10): 0%
- Tox/Tot (mice which died / total) (VRC5; oral, 5 mg/kg, DX 10): 0/10
- % inhibition of tumor growth (VRC5; oral, 10 mg/kg, DX 10): 10%
- Tox/Tot (mice which died / total) (VRC5; oral, 10 mg/kg, DX 10): 0/10
- % inhibition of tumor growth (VRC5; oral, 20 mg/kg, DX 10): 45%
- Tox/Tot (mice which died / total) (VRC5; oral, 20 mg/kg, DX 10): 2/9
